Data on 8 compounds can be found in patent publication EP0033088A2, “Antimycotic agents” (BAYER AG, priority 1980, dated 1981).

The assay relates to Candida. Briefly: Antimicrobial in-vivo activity (oral) in mouse candidosis. Set-up: species or system Mäuse vom Typ SPF-DF1. Conditions: mice infected i.v. with Candida cells; 50 to 100 mg/kg oral, one hour before and seven hours after infection; compared with prior-art compounds; untreated survival about 5 % on day 6. As to the method:
Mäuse vom Typ SPF-DF1 wurden intravenös mit 1 bis 2 x 10^6 logarytmisch wachsenden Candida-Zellen, die in physiologischer Kochsalzlösung suspendiert waren, infiziert. Eine Stunde vor und sieben Stunden nach der Infektion werden die Tiere mit jeweils 50 bis 100 mg/kg Körpergewicht der Präparate oral behandelt.
Unbehandelte Tiere starben 3 bis 6 Tage post infektionem. Die Überlebensrate am 6. Tag post infektionem betrug bei unbehandelten Kontrolltieren etwa 5 %.

On to `OC(c1ccc(Cl)cc1)C(C(O)C(Cl)(Cl)Cl)n1cncn1` (centres unmarked) [Beispiel 12], for which the in-vivo-Wirksamkeit result is given as “denjenigen der Verbindungen des Standes der Technik überlegen”.
With `CC(C)(C)C(O)C(C(O)C(Cl)(Cl)Cl)n1cncn1` (centres unmarked) [Beispiel 1, 1,1,1-Trichlor-3-(1,2,4-triazol-1-yl)-5,5-dimethyl-hexan-2,4-diol] the entry was “denjenigen der Verbindungen des Standes der Technik überlegen”.
With `OC(c1ccc(F)cc1)C(C(O)C(Cl)(Cl)Cl)n1cncn1` (centres unmarked) [Beispiel 15] the entry was “denjenigen der Verbindungen des Standes der Technik überlegen”; with `CC(C)(C)C(O)C(C(O)C=C(Cl)Cl)n1cncn1` (centres unmarked) [Beispiel 6], “denjenigen der Verbindungen des Standes der Technik überlegen”; with `OC(c1ccc(Cl)cc1Cl)C(C(O)C(Cl)(Cl)Cl)n1cncn1` (centres unmarked) [Beispiel 14], “denjenigen der Verbindungen des Standes der Technik überlegen”.
With `CC(Cl)C(Cl)(Cl)C(O)C(C(O)C(C)(C)C)n1cncn1` (centres unmarked) [Beispiel 21] the entry was “denjenigen der Verbindungen des Standes der Technik überlegen”; with `CC(Cl)C(Cl)(Cl)C(O)C(C(O)C(C)(C)CF)n1cncn1` (centres unmarked) [Beispiel 11], “denjenigen der Verbindungen des Standes der Technik überlegen”.
`CC(C)(C)C(O)C(C(O)C(C)(C)Cl)n1cncn1` (centres unmarked) [Beispiel 4]: the in-vivo-Wirksamkeit entry was “denjenigen der Verbindungen des Standes der Technik überlegen”.
